Bridge positions count the residues as written; N and C are the ends. Square brackets hold non-standard residues; d marks the D form. Peptide text beside a SMILES is read from it. S5 = C=CCCC[C@](C)(N)C(=O)O; Nle = CCCC[C@H](N)C(=O)O
Assays:
[1] = test system: E. coli; format: cell-based, Escherichia coli
Procedure: (§1) Antimicrobial Activity Assay:
(§2) The following microbroth dilution protocol was adapted to determine the minimum inhibitory concentration (MIC) of each peptide. First, Mueller-Hinton broth (MHB) was passed through an anion exchange column to remove polyanionic species and generate refined MHB. […] Briefly, bacterial cells was grown overnight in refined MHB at 37° C. and then diluted and allowed to grow again for several hours. Serial dilutions of peptide stocks in water (10 μl) were prepared using clear round-bottom polypropylene 96-well plates. Then 90 μl of bacteria in refined MHB was added to give a final inoculum of 5×10^5 CFU/ml. The plates were then covered with porous tape to reduce evaporation, and incubated for 20-24 hours at 37° C. The MIC is the minimum peptide concentration at which no visible growth was observed.

[2] = test system: B. cereus; format: cell-based, Bacillus cereus
Procedure: as §1, §2

[3] = test system: S. aureus; format: cell-based, Staphylococcus aureus
Procedure: as §1, §2

[4] = test system: P. aeruginosa; format: cell-based, Pseudomonas aeruginosa
Procedure: as §1, §2

[5] = test system: human red blood cells; format: cell-based; conditions: for % Hemolysis at 25 μg/ml: red cells of human, 1 h
Procedure: FIG. 5 is a series of line graphs depicting the hemolytic activity of magainin II and stapled analogues. Peptides were incubated with 1% (v/v) human red blood cells in phosphate-buffered solution for 1 hour at 37° C. and then the supernatant was isolated and the amount of hemoglobin released was measured at 540 nm. % hemolysis was calculated relative to an untreated control.
Hemolytic Activity Assay:
For the determination of hemolytic activity, human blood samples were centrifuged to isolate red blood cells (RBCs), which are then washed and suspended in phosphate-buffered saline to yield a 1% (v/v) suspension. The suspension was then added to serial dilutions of peptide stocks in water in clear round-bottom polypropylene 96-well plates and the plates were incubated for 1 hour at 37° C. After incubation, the plates were centrifuged and the supernatant was isolated to determine the amount of hemoglobin released using a spectrophotometer (570 nm), according to the equation: % Hemolysis=(Treated Absorbance−Untreated Control Absorbance)/(1% Triton-X100 Treated Absorbance−Untreated Control Absorbance). The minimum hemolytic concentration (MHC) is the peptide concentration at which there is less than 1% hemoglobin release.

| MIC E. coli [1] [µg/mL] | MIC B. cereus [2] [µg/mL] | MIC S. aureus [3] [µg/mL] | MIC P. aeruginosa [4] [µg/mL] | SMILES | % Hemolysis at 25 μg/ml [5] [%] | hemolytic activity (in words) [5] |
| --- | --- | --- | --- | --- | --- | --- |
| 3.1 | 6.2 | 25 | 12.5 | CCCC[C@H](NC(=O)[C@@H](NC(=O)[C@H](CCC(=O)O)NC(=O)CNC(=O)[C@@H](NC(=O)[C@H](Cc1ccccc1)NC(=O)[C@H](C)NC(=O)[C@H](CCCCN)NC(=O)CNC(=O)[C@H](Cc1ccccc1)NC(=O)[C@H](CCCCN)NC(=O)[C@H](CCCCN)NC(=O)[C@]1(C)CCCC=CCCC[C@](C)(NC(=O)[C@H](CCCCN)NC(=O)CNC(=O)[C@@H](NC(=O)CN)[C@@H](C)CC)C(=O)N[C@@H](CC(C)C)C(=O)N[C@@H](Cc2c[nH]cn2)C(=O)N[C@@H](CO)C(=O)N1)C(C)C)[C@@H](C)CC)C(=O)N[C@@H](CC(N)=O)C(=O)N[C@@H](CO)C(N)=O [Mag(i + 4)4] (H-GIGK[S5]LHS[S5]KKFGKAFVGEI[Nle]NS-NH2; staple 5-9) | 17.8 | – |
| 12.5 | 12.5 | 25 | 50 | CCCC[C@H](NC(=O)[C@@H](NC(=O)[C@H](CCC(=O)O)NC(=O)CNC(=O)[C@@H](NC(=O)[C@H](Cc1ccccc1)NC(=O)[C@H](C)NC(=O)[C@H](CCCCN)NC(=O)CNC(=O)[C@H](Cc1ccccc1)NC(=O)[C@H](CCCCN)NC(=O)[C@]1(C)CCCC=CCCC[C@](C)(NC(=O)[C@H](Cc2ccccc2)NC(=O)[C@H](CCCCN)NC(=O)CNC(=O)[C@@H](NC(=O)CN)[C@@H](C)CC)C(=O)N[C@@H](Cc2c[nH]cn2)C(=O)N[C@@H](CO)C(=O)N[C@@H](C)C(=O)N1)C(C)C)[C@@H](C)CC)C(=O)N[C@@H](CC(N)=O)C(=O)N[C@@H](CO)C(N)=O [Mag(i + 4)5] (H-GIGKF[S5]HSA[S5]KFGKAFVGEI[Nle]NS-NH2; staple 6-10) | 13.3 | – |
| 3.1 | 6.2 | 6.2 | 6.2 | CCCC[C@H](NC(=O)[C@@H](NC(=O)[C@H](CCC(=O)O)NC(=O)CNC(=O)[C@@H](NC(=O)[C@H](Cc1ccccc1)NC(=O)[C@H](C)NC(=O)[C@H](CCCCN)NC(=O)CNC(=O)[C@]1(C)CCCC=CCCC[C@](C)(NC(=O)[C@H](Cc2c[nH]cn2)NC(=O)[C@H](CC(C)C)NC(=O)[C@H](Cc2ccccc2)NC(=O)[C@H](CCCCN)NC(=O)CNC(=O)[C@@H](NC(=O)CN)[C@@H](C)CC)C(=O)N[C@@H](C)C(=O)N[C@@H](CCCCN)C(=O)N[C@@H](CCCCN)C(=O)N1)C(C)C)[C@@H](C)CC)C(=O)N[C@@H](CC(N)=O)C(=O)N[C@@H](CO)C(N)=O [Mag(i + 4)7] (H-GIGKFLH[S5]AKK[S5]GKAFVGEI[Nle]NS-NH2; staple 8-12) | 62.5 | – |
| 3.1 | 3.1 | 12.5 | 3.1 | CCCC[C@H](NC(=O)[C@@H](NC(=O)[C@H](CCC(=O)O)NC(=O)CNC(=O)[C@@H](NC(=O)[C@H](Cc1ccccc1)NC(=O)[C@H](C)NC(=O)[C@H](CCCCN)NC(=O)[C@]1(C)CCCC=CCCC[C@](C)(NC(=O)[C@H](CO)NC(=O)[C@H](Cc2c[nH]cn2)NC(=O)[C@H](CC(C)C)NC(=O)[C@H](Cc2ccccc2)NC(=O)[C@H](CCCCN)NC(=O)CNC(=O)[C@@H](NC(=O)CN)[C@@H](C)CC)C(=O)N[C@@H](CCCCN)C(=O)N[C@@H](CCCCN)C(=O)N[C@@H](Cc2ccccc2)C(=O)N1)C(C)C)[C@@H](C)CC)C(=O)N[C@@H](CC(N)=O)C(=O)N[C@@H](CO)C(N)=O [Mag(i + 4)8, GIGKFLHSXKKFXKAFVGEIBNS] (H-GIGKFLHS[S5]KKF[S5]KAFVGEI[Nle]NS-NH2; staple 9-13) | 74.6 | indiscriminate lytic activity |

The remaining lines, values behind:

| SMILES | MIC E. coli [1] [µg/mL] | MIC B. cereus [2] [µg/mL] | MIC S. aureus [3] [µg/mL] | MIC P. aeruginosa [4] [µg/mL] | % Hemolysis at 25 μg/ml [5] [%] | hemolytic activity (in words) [5] |
| --- | --- | --- | --- | --- | --- | --- |
| CCCC[C@H](NC(=O)[C@]1(C)CCCC=CCCC[C@](C)(NC(=O)[C@H](C)NC(=O)[C@H](CCCCN)NC(=O)CNC(=O)[C@H](Cc2ccccc2)NC(=O)[C@H](CCCCN)NC(=O)[C@H](CCCCN)NC(=O)[C@H](Cc2c[nH]cn2)NC(=O)[C@H](CO)NC(=O)[C@]2(C)CCCC=CCCC[C@](C)(NC(=O)[C@H](CCCCN)NC(=O)CN)C(=O)N[C@@H](CCCCN)C(=O)N[C@@H](Cc3ccccc3)C(=O)N[C@@H](CC(C)C)C(=O)N2)C(=O)N[C@@H](C(C)C)C(=O)N[C@@H](Cc2c[nH]cn2)C(=O)N[C@@H](CCC(=O)O)C(=O)N1)C(=O)N[C@@H](CCC(=O)O)C(=O)N[C@@H](CO)C(N)=O [Mag(i + 4)2, 15(I2X, A9H, G18H, N21E)] (H-GK[S5]KFL[S5]SHKKFGKA[S5]VHE[S5][Nle]ES-NH2; staple 3-7, 16-20) | 3.1 | 6.2 | 25 | 6.2 | 4.0 | – |
| CCCC[C@H](NC(=O)[C@@H](NC(=O)[C@H](CCC(=O)O)NC(=O)CNC(=O)[C@@H](NC(=O)[C@H](Cc1ccccc1)NC(=O)[C@H](C)NC(=O)[C@H](CCCCN)NC(=O)CNC(=O)[C@H](Cc1ccccc1)NC(=O)[C@H](CCCCN)NC(=O)[C@H](CCCCN)NC(=O)[C@H](C)NC(=O)[C@H](CO)NC(=O)[C@]1(C)CCCC=CCCC[C@](C)(NC(=O)[C@@H](NC(=O)CN)[C@@H](C)CC)C(=O)N[C@@H](CCCCN)C(=O)N[C@@H](Cc2ccccc2)C(=O)N[C@@H](CC(C)C)C(=O)N1)C(C)C)[C@@H](C)CC)C(=O)N[C@@H](CC(N)=O)C(=O)N[C@@H](CO)C(N)=O [Mag(i + 4)2] (H-GI[S5]KFL[S5]SAKKFGKAFVGEI[Nle]NS-NH2; staple 3-7) | 3.1 | 12.5 | 12.5 | 12.5 | 19.6 | – |
| CCCC[C@H](NC(=O)[C@@H](NC(=O)[C@H](CCC(=O)O)NC(=O)CNC(=O)[C@@H](NC(=O)[C@H](Cc1ccccc1)NC(=O)[C@H](C)NC(=O)[C@H](CCCCN)NC(=O)CNC(=O)[C@H](Cc1ccccc1)NC(=O)[C@H](CCCCN)NC(=O)[C@H](CCCCN)NC(=O)[C@H](C)NC(=O)[C@]1(C)CCCC=CCCC[C@](C)(NC(=O)CNC(=O)[C@@H](NC(=O)CN)[C@@H](C)CC)C(=O)N[C@@H](Cc2ccccc2)C(=O)N[C@@H](CC(C)C)C(=O)N[C@@H](Cc2c[nH]cn2)C(=O)N1)C(C)C)[C@@H](C)CC)C(=O)N[C@@H](CC(N)=O)C(=O)N[C@@H](CO)C(N)=O [Mag(i + 4)3] (H-GIG[S5]FLH[S5]AKKFGKAFVGEI[Nle]NS-NH2; staple 4-8) | 6.2 | 12.5 | 6.2 | 25 | 41.6 | – |
| CCCC[C@H](NC(=O)[C@@H](NC(=O)[C@H](CCC(=O)O)NC(=O)CNC(=O)[C@@H](NC(=O)[C@H](Cc1ccccc1)NC(=O)[C@H](C)NC(=O)[C@]1(C)CCCC=CCCC[C@](C)(NC(=O)[C@H](C)NC(=O)[C@H](CO)NC(=O)[C@H](Cc2c[nH]cn2)NC(=O)[C@H](CC(C)C)NC(=O)[C@H](Cc2ccccc2)NC(=O)[C@H](CCCCN)NC(=O)CNC(=O)[C@@H](NC(=O)CN)[C@@H](C)CC)C(=O)N[C@@H](CCCCN)C(=O)N[C@@H](Cc2ccccc2)C(=O)NCC(=O)N1)C(C)C)[C@@H](C)CC)C(=O)N[C@@H](CC(N)=O)C(=O)N[C@@H](CO)C(N)=O [Mag(i + 4)9] (H-GIGKFLHSA[S5]KFG[S5]AFVGEI[Nle]NS-NH2; staple 10-14) | 6.2 | 12.5 | >50 | >50 | 66.9 | – |

Reference: US20200231638A1, “STABILIZED ANTI-MICROBIAL PEPTIDES” (priority 2015, published 2020)
